Results from patent US20070191495A1, “Lipase inhibitor” (FUJI OIL COMPANY, LIMITED, priority 2004, published 2007).

How the values were obtained:
[1] = target: T1, pig pancreatic lipase (Sus scrofa, UniProt P00591); experiment: lipase activity measurement (free fatty acid released from emulsified fat, OD480); type: biochemical; details: for Relative activity of test fat to soybean oil: 37° C., 1 hour
T1 construct: purchased Sigma
T1 sequence (P00591 1-450): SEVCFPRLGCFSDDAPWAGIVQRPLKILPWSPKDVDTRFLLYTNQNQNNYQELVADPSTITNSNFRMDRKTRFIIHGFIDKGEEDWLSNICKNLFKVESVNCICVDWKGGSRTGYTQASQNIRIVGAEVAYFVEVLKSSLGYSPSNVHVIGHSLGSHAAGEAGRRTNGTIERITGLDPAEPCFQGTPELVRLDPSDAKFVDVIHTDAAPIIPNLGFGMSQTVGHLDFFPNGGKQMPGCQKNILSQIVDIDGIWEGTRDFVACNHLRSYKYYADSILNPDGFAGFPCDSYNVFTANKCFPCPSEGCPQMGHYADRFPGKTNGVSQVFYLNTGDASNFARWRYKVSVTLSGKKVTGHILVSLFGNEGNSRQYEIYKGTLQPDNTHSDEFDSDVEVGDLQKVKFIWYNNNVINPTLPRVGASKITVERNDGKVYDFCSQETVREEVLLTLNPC
Description: (§1) Soybean oils of which 1 part (2O2 purity: about 0.8%), 5 parts (2O2 purity: about 4.2%), 10 parts (2O2 purity: about 8.3%) and 50 parts (2O2 purity about: 41.5%) were replaced with the 2O2 fraction obtained as described above, and the 2O2 fraction itself (2O2 purity: 83%) were used for the following lipase activity measurement. To 80 mg of each oil, 80 mg of phosphatidylcholine (Sigma), 5 mg of sodium taurocholate (Wako Pure Chemical Industries, Ltd.), and 9 ml of a 0.1 M TES buffer (PH 7) containing 0.1 M NaCl were added and the mixture was emulsified with an ultrasound oscillator for 1 minute to obtain a substrate. To 300 μl of the substrate, 5 μl (5U) of a pig pancreatic lipase (Sigma) was added and then reacted at 37° C. for 1 hour. To the reaction mixture was then added 3 ml of an extraction solvent (a mixture of chloroform/heptane/methanol=49 parts/49 parts/2 parts). The mixture was stirred vigorously and then centrifuged at 2500 rpm for 5 minutes. The upper layer was removed. To the lower layer was added 1 ml of a copper regent (prepared by dissolving 2.98 g of triethanolamine, 2.42 g of copper nitrate and 0.48 g of NaOH in 200 ml of water and then adding 66 g of NaCl). The mixture was stirred for 10 minutes and then centrifuged at 2500 rpm for 10 minutes to take 1.5 ml of the upper layer as a sample. To the sample was added 1.5 ml of a color-producing reagent (prepared by 0.2 g of bathocuproin and 0.1 g of butylhydroxyanisole in 200 ml of chloroform) and an absorbance at OD480 was measured as the quantity of free fatty acid.
as §1, with “(LUU/UUL” for “(2O2”, “0.7%),” for “0.8%),”, “3.5%) and” for “4.2%),”, “7.0%)” for “8.3%) and 50 parts (2O2 purity about: 41.5%)”, “LUU/UUL” for “2O2”, “70%)” for “83%)”
Soybean oils of which 1 part, 5 parts and 10 parts were replaced with the glyceryl ether lipid fraction obtained as described above, and the glyceryl ether lipid fraction itself were used for the following lipase activity measurement. To 80 mg of each oil, 80 mg of phosphatidylcholine (Sigma), 5 mg of sodium taurocholate (Wako Pure Chemical Industries, Ltd.), and 9 ml of a 0.1 M TES buffer (PH 7) containing 0.1 M NaCl were added and the mixture was emulsified with an ultrasound oscillator for 1 minute to obtain a substrate. To 300 μl of the substrate, 5 μl (5U) of a pig pancreatic lipase (Sigma) was added and then reacted at 37° C. for 1 hour. To the reaction mixture was then added 3 ml of an extraction solvent (a mixture of chloroform/heptane/methanol =49 parts/49 parts/2 parts). The mixture was stirred vigorously and then centrifuged at 2500 rpm for 5 minutes. […]

[2] = Digestion and absorption test in mouse; type: in vivo, C57BL/6J mice; details: for Body fat percentage: PIXImus2; for Body weight: in g (unit assumed)
Description: Using the 2O2 fraction obtained in Preparation Example 1 and mice, a digestion and absorption test was performed for about 2 months. Seven-week-old C57BL/6J mice were pre-reared for 1 week and used for the test. The compounded feed shown in Table 2, which is prepared by partially modifying AIN-93G composition, or soybean oil as a control was fed to the mice for about 2 months. Each group consisted of 6 mice. After reared for about 2 months, a change in the body weight, feed efficiency and body fat percentage were measured. For measuring body fat percentage, an X-ray bone density measuring apparatus for exclusive use in experimental mice, PIXImus2 (GE Medical Systems) was used. As a result of a digestion and adsorption test on mice for 56 days, in a group using the 2O2 fraction, the body weight was reduced by about 10%, the feed efficiency was reduced by 17%, and the body fat percentage was reduced by about 14%.
Using the LUU/UUL fraction obtained in Preparation Example 3 and mice, a digestion and absorption test was performed for about 2 months. Seven-week-old C57BL/6J mice were pre-reared for 1 week and used for the test. The compounded feed shown in Table 5, which is prepared by partially modifying AIN-93G composition, or soybean oil as a control was fed to the mice for about 2 months. Each group consisted of 6 mice. After reared for about 2 months, a change in the body weight, feed efficiency and body fat percentage were measured. For measuring body fat percentage, an X-ray bone density measuring apparatus for exclusive use in experimental mice, PIXImus2 (GE Medical Systems) was used. As a result of a digestion and adsorption test on mice for 56 days, in a group using the […] fraction, the body weight was reduced by about 9%, the feed efficiency was reduced by 12%, and the body fat percentage was reduced by about 13%.
Using the glyceryl ether lipid fraction obtained in Preparation Example 4 and mice, a digestion and absorption test was performed for about 2 months. Seven-week-old C57BL/6J mice were pre-reared for 1 week and used for the test. The compounded feed shown in Table 8, which is prepared by partially modifying AIN-93G composition, or soybean oil as a control was fed to the mice for about 2 months. Each group consisted of 6 mice. After reared for about 2 months, a change in the body weight, feed efficiency and body fat percentage were measured. For measuring body fat percentage, an X-ray bone density measuring apparatus for exclusive use in experimental mice, PIXImus2 (GE Medical Systems) was used. As a result of a digestion and adsorption test on mice for 56 days, in a group using soybean oil/the glyceryl ether lipid fraction, the body weight and the feed efficiency were reduced by bout 10%, and the body fat percentage was reduced by about 12%.

[3] = fat composition soybean oil/test fat 0/100 (part), the fraction itself
[4] = fat composition soybean oil/test fat 50/50 (part)
[5] = fat composition soybean oil/test fat 90/10 (part)
[6] = fat composition soybean oil/test fat 95/5 (part)
[7] = fat composition soybean oil/test fat 99/1 (part)
[8] = soybean oil of which 1 part was replaced with the test fat
[9] = 56 days, versus soybean oil group
[10] = after rearing for 56 days, feed with 10.0 wt % soybean oil + 0.5 wt % test fraction
[11] = before initiation of rearing, feed with 10.0 wt % soybean oil + 0.5 wt % test fraction

| Structure (SMILES) | Relative activity of test fat to soybean oil [1, 3] | Relative activity of test fat to soybean oil [1, 4] | Relative activity of test fat to soybean oil [1, 5] | Relative activity of test fat to soybean oil [1, 6] | Relative activity of test fat to soybean oil [1, 7] | activity inhibited by [1, 8] | activity inhibited by ([1]; soybean oil of which 10 parts was replaced with the test fat) | body fat percentage reduced by [2, 9] | body weight reduced by [2, 9] | feed efficiency reduced by [2, 9] | Body fat percentage [2, 10] | Feed efficiency [2, 10] | Body weight [2, 10] | Body fat percentage [2, 11] | Body weight [2, 11] | activity inhibited by ([1]; soybean oil of which 5 parts were replaced with the test fat) |
| --- | --- | --- | --- | --- | --- | --- | --- | --- | --- | --- | --- | --- | --- | --- | --- | --- |
| CCCCCCCC/C=C\CCCCCCCC(=O)OC(COC(=O)CCCCC)COC(=O)CCCCC [6O6] | 30% | 68% | 74% | 91% | 86% | about 15% | about 25% |  |  |  |  |  |  |  |  |  |
| CCCCCCCC/C=C\CCCCCCCC(=O)OC(COC(C)=O)COC(C)=O [2O2] | 11% | 48% | 67% | 66% | 78% | about 20% |  | about 14% | about 10% | 17% | 34.8 ± 2.5 | 0.061 ± 0.002 | 30.7 ± 1.4 | 19.1 ± 0.9 | 22.8 ± 0.3 | about 35% |
